“Also recorded” adds a separate entry of the source. Blank lines part the entries; values can stand above or below the compound they belong to.
Key:
Type in all cases: in vivo
DPP4 [1] = target: T1, DPP4 (Rattus norvegicus, UniProt P14740); assay: Panels of pairs of peptides/proteins (linear model): correlation to inhibitor concentration or to decreased DPP4 activity; settings: for Correlation coefficient of Panel 1 + 2: panel of both peptides/proteins; for Correlation coefficient of Pep./Prot. 1: single peptide/protein 1 of the panel; for Correlation coefficient of Pep./Prot. 2: single peptide/protein 2 of the panel
T1 construct: from tissue; host or cells: Wistar rats dosed in vivo; activity read in tail-vein plasma
T1 sequence (P14740 whole entry): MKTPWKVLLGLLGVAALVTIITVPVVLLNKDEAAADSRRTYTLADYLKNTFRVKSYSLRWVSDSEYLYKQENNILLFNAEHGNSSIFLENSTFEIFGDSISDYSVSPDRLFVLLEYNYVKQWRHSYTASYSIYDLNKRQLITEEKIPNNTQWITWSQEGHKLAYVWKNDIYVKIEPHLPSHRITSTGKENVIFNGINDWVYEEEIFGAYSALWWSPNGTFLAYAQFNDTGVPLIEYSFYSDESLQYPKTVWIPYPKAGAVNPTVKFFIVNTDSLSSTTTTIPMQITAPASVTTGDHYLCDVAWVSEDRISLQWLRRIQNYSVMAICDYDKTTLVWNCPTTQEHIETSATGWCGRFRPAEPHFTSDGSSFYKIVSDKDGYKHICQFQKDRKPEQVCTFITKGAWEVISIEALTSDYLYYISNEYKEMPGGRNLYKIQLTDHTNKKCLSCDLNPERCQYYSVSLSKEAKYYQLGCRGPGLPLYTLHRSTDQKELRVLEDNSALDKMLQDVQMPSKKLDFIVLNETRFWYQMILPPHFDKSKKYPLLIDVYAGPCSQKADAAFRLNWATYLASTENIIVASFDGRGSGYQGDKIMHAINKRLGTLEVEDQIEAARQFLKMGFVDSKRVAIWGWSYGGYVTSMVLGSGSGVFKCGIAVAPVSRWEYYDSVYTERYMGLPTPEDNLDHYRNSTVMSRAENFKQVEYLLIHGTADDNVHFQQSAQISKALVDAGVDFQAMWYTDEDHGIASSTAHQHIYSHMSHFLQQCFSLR
Procedure: In addition, networks of peptides and/or proteins were calculated. This allows, for example, to identify panels of peptides and/or proteins, which enable to better reflect the biological impact of the inhibitors (FIG. 5/Table 2). Combining two peptides and/or proteins in these panels increased the reliability of the prediction (e.g. concentration of inhibitor, “before/after change in DPP4 activity”) possible by evaluating these peptide/protein panels. These panels were determined by comprehensively combining peptide and/or protein signals to pairs of peptide and/or protein signals. In a “linear model”, the signal intensities of the peptide and/or protein pairs were treated as independent variables, and the endpoint DPP4 concentration (or change in DPP4 activity) was treated as the dependent variable. The “linear model” was then calculated (e.g. with R-package, version 2.00 (R Foundation for Statistical Computing, Vienna, Austria) or S-plus, version 6.0 (Insightful AG, Reinach, Switzerland), etc.).
In addition to panels of peptides and/or proteins, surrogate networks of peptides and/or proteins can also be predicted, which peptides and/or proteins can replace each other, i.e. the peptides and/or proteins are surrogates of each other. Using this method it is, for example, possible to identify peptides and/or proteins which have the same diagnostic value. […] In addition, it is possible to choose those peptides and/or proteins of a surrogate network, which can be measured with the least effort. Both strategies can be combined to save time, resources, valuable or limited patient samples, etc. For determining these surrogate networks and peptide and/or protein panels, methods such as the methods described in PCT/EP 2005/000090 can be used.

DPP4 [2] = target: T1, DPP4; assay: Peptide display (RP chromatography + MALDI-MS) of rat plasma: Spearman correlation of peptide/protein signals with inhibitor concentration or before/after change in DPP4 activity; design: key to Correlation of mass spectrometric signal with concentration of inhibitor AB & Contr.In. A / Correlation of mass spectrometric signal with concentration of inhibitor Contr.In. C: With positive (pos.) correlation regarding the inhibitor concentration is meant that higher concentrations of inhibitor result in higher concentration of a peptide or protein
Procedure: The DPP4 inhibitor AB192 (bis(4-acetamidophenyl)-1-(S)-prolylpyrrolidine-2-(R,S)-phosphonate) (J. Med. Chem., 1999, 42:1041-52) was kindly provided by Ingrid De Meester (University of Antwerp, Campus Drie Eiken, Department of Pharmaceutical Sciences, Universiteitsplein 1, B-2610 Wilrijk-Antwerpen). AB192, an irreversible inhibitor of DPP4, was used at 0.32, 1.00 and 3.2 mg/kg body weight. The control inhibitor (Contr.In.) was used at 0.3, 1.0 and 3.0 mg/kg body weight. Eight week old Wistar rats (315-320 g body weight) received either of the inhibitors (8 animals for each inhibitor concentration of each inhibitor) or were treated with vehicle (50 mM sodium phosphate buffer; pH 7.4) (4 animals). The rats received the inhibitors or vehicle by subcutaneous injection into the fat tissue of the neck using a 27-G needle. Blood samples (100 μl) for DPP4 activity measurements were drawn from the tail vein before injection and at the end of the experiment 1 h after injection of the DPP4 inhibitors. At this point, the rats were anaesthetised using a mixture of ketamin (9 mg/100 g body weight) and rompun (0.2 mg/100 g body weight). Additionally, rats received a short burst of ether for quick anaesthesia. The thorax was opened immediately and 4 to 6 ml of blood taken from the right ventricle into ethylenediaminetetraacetic acid (EDTA) laminated syringes and transferred into a 15 ml tube filled with EDTA at a final concentration of 2.5 mg/ml.
Rat blood samples were consecutively centrifuged at room temperature for 10 min at 2000×g and for 15 min at 2500×g. The resulting platelet poor plasma was stored at −80° C. until analysis. For reduction of the protein load of the plasma, the plasma sample was diluted 1:4 with 8 M guanidinium chloride solution at room temperature and for quality control purposes a peptide standard mix was added resulting in a final concentration of 300 to 800 pM of each individual standard peptide added. The peptides added were: substance P, somatostatin-14, neurotensin, renin substrate (porcine), adrenocorticotropic hormone (ACTH)(1-17), big endothelin-1(19-38), ACTH(18-39), beta-Endorphin(6-31), adrenocorticotropic hormone(1-24), calcitonin (human), insulin B chain oxide (bovine), ACTH(7-38), pro34-neuropeptide Y (porcine) and growth hormone-releasing factor (GRF)(1-44). All Peptides or proteins represent the human sequence, if not indicated to the contrary and the numbers in brackets following some of the peptides indicate the amino acid positions of the complete sequence including said peptide. Prior to use, the ultrafiltration devices are rinsed with distilled water. Ultrafiltration was done using Amicon Ultra filter devices with a molecular weight cut-off of 50 kDa (Millipore, Bedford, USA), which were centrifuged according to the manufacturer's instructions at 4000×g for 60 min at room temperature in a swinging bucket rotor. Finally, the pH of the filtrate was adjusted to pH 2 to 3 using concentrated HCl (30% v/v). If the sample (filtrate) was not directly further processed, it was stored at −80° C. A 750 μl-equivalent of plasma was used per chromatographic run.
The separation of peptides and/or proteins was done using a Source 5RPC, 4,6×150 mm reverse phase chromatography column (Amersham Biosciences Europe GmbH, Freiburg, Germany). Buffer A was 0.06% (v/v) (volume per volume) trifluoroacetic acid (TFA) in distilled water and buffer B was 0.05% (v/v) TFA, 80% (v/v) acetonitrile in distilled water. The chromatography took place at 33° C. using a HP 1100 HPLC with a micro flow cell both supplied by Agilent Technologies, Böblingen, Germany. The samples were diluted to 5.5 ml using a 0.1% (v/v) stock solution of trifluoroacetic acid. Prior to chromatography, the samples were centrifuged at 4° C. and 15 000×g for 10 minutes and finally 5 ml of sample were loaded onto the chromatography column representing an equivalent of 750 μl plasma. […]

DPP4 [3] = target: T1, DPP4; assay: DPP4 activity in plasma of rats injected with DPP4 inhibitors (G-P-4 nitroanilide substrate, 405 nm); settings: Wistar rats, s.c., 0.3-3.2 mg/kg, 1 h after injection; FIG. 2
Procedure: The DPP4 inhibitor AB192 (bis(4-acetamidophenyl)-1-(S)-prolylpyrrolidine-2-(R,S)-phosphonate) (J. Med. Chem., 1999, 42:1041-52) was kindly provided by Ingrid De Meester (University of Antwerp, Campus Drie Eiken, Department of Pharmaceutical Sciences, Universiteitsplein 1, B-2610 Wilrijk-Antwerpen). AB192, an irreversible inhibitor of DPP4, was used at 0.32, 1.00 and 3.2 mg/kg body weight. The control inhibitor (Contr.In.) was used at 0.3, 1.0 and 3.0 mg/kg body weight. Eight week old Wistar rats (315-320 g body weight) received either of the inhibitors (8 animals for each inhibitor concentration of each inhibitor) or were treated with vehicle (50 mM sodium phosphate buffer; pH 7.4) (4 animals). The rats received the inhibitors or vehicle by subcutaneous injection into the fat tissue of the neck using a 27-G needle. […]
Blood samples taken from the tail vein were immediately centrifuged (2000×g; 10 min at room temperature) and plasma stored at −20° C. […] The 96-well plate was read immediately using a Tecan Genios microplate reader (Tecan Deutschland GmbH, Crailsheim, Germany) and measurements were taken at 37° C. over a period of time of 1 h at a wavelength of 405 nm. From the measured values the blank signal (plasma+HEPES buffer) was subtracted and data calculated as Units/litre (U/l). […]

[4] = with concentration of AB (AB192 inhibitor)
[5] = with concentration of AB and Contr.In.
[6] = with DPP4 activity in presence of AB (AB192 inhibitor)

Correlation coefficient of Panel 1 + 2 (DPP4 [1]; [4]): 0.66
Correlation coefficient of Pep./Prot. 1 (DPP4 [1]; [4]): −0.44
Correlation coefficient of Pep./Prot. 2 (DPP4 [1]; [4]): 0.48
Correlation of mass spectrometric signal with concentration of inhibitor Contr.In. C (DPP4 [2]; Spearman, concentration of control inhibitor, but not of AB192, n=27, |r|>0.61, rat plasma): pos.
correlation of mass spectrometric signal with the amount of control inhibitor (Contr.In.) given to the rat (DPP4 [2]; rat plasma, FIG. 4A): positively
Compound: PPGPPGPPGPPGPPS [Peptide/Protein No. 3]

Correlation coefficient of Panel 1 + 2 (DPP4 [1]; [5]): 0.59
Correlation coefficient of Pep./Prot. 1 (DPP4 [1]; [5]): −0.52
Correlation coefficient of Pep./Prot. 2 (DPP4 [1]; [5]): −0.52
Correlation of mass spectrometric signal with concentration of inhibitor AB & Contr.In. A (DPP4 [2]; Spearman, correlates with concentration of AB192 and of control inhibitor, n=49, |r|>0.5, rat plasma 1 h after s.c. injection): pos.
correlation of mass spectrometric signal with the amount of the DPP4 inhibitor AB192 or the control inhibitor given to the rat (DPP4 [2]; rat plasma, FIG. 3B): positively
Compound: LPGPPGERGGPGSRGFPGADGVAGP [Peptide/Protein No. 2]

Correlation coefficient of Panel 1 + 2 (DPP4 [1]; [6]): 0.54
Correlation coefficient of Pep./Prot. 1 (DPP4 [1]; [6]): −0.38
Correlation coefficient of Pep./Prot. 2 (DPP4 [1]; [6]): −0.4
Correlation of mass spectrometric signal with DPP4 inhibition by Contr.In. F (DPP4 [2]; Spearman, before/after change in DPP4 activity with control inhibitor, but not AB192, n=31, |r|>0.61, rat plasma): neg.
correlation of mass spectrometric signal with the DPP4 activity measured in the same samples (DPP4 [2]; plasma of rats treated with control inhibitor (Contr.In.), FIG. 3A, 4B): negatively
Compound: GAPGQNGEPGAKGERGAPGEKGEGGPPG [Peptide/Protein No. 45]

Compound: CC(=O)Nc1ccc(OP(=O)(Oc2ccc(NC(C)=O)cc2)C2CCCN2C(=O)[C@@H]2CCCN2)cc1 (stereo partly drawn) [AB192, bis(4-acetamidophenyl)-1-(S)-prolylpyrrolidine-2-(R,S)-phosphonate]
DPP4 activity in plasma (DPP4 [3]): inhibited the activity of DPP4 in vivo in rats in a dose dependent manner; also recorded: inhibit DPP4 activity in vivo in a dose-dependent manner

Reference: US20070037143A1, “Method for screening for protease modulators” (DIGILAB BioVisioN GmbH, priority 2005, published 2007)
